Measurements as given in US20080139455A1, “COMPOUNDS AND METHODS OF TREATING METABOLIC SYNDROME AND INFLAMMATION” (Forbes Medi-Tech (Research), Inc., priority 2006, published 2008).

How the values were obtained:
[1] = molecular target: T1, SPT (Homo sapiens, UniProt O15269+O15270); settings: literature; cited from earlier work
T1 sequence (O15269 1-473): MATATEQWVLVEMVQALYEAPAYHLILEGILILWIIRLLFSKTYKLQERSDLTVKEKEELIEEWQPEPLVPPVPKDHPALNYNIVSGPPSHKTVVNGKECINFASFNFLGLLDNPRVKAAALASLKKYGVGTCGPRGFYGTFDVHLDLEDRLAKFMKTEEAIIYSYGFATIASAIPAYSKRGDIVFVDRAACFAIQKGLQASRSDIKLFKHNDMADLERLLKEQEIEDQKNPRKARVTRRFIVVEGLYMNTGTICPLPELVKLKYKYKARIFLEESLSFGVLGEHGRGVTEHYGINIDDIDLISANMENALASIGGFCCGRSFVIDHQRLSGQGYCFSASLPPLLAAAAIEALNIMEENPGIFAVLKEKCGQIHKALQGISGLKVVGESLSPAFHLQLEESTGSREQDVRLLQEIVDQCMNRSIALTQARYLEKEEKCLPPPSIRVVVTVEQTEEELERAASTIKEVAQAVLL
T1 sequence (O15270 1-562): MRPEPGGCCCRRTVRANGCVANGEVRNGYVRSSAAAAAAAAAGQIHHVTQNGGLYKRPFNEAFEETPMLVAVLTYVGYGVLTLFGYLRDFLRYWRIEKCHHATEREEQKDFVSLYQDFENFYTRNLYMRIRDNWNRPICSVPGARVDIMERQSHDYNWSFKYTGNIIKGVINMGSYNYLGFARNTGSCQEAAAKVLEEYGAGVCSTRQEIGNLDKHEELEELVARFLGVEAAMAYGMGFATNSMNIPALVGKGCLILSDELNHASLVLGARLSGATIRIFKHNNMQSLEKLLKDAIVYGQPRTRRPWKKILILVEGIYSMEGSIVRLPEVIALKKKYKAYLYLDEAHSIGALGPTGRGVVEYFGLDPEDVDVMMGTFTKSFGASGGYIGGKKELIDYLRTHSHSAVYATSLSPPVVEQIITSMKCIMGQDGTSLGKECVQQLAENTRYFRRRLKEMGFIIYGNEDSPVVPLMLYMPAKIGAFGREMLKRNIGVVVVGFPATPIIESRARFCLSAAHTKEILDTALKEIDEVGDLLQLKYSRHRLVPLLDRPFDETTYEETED

[2] = test system: Rat pancreatic islets; assay: Protection of islets by an SPT inhibitor (propidium iodide staining, flow cytometry); format: cell-based; settings: 3 days
Procedure: Islet protection by an exemplary compound is evaluated in an assay according to Eitel, K, et al. Biochem. Biophys. Res. Commun. 299: 853-6 (2002), and results obtained in this assay are reported below in Table 4. Rat pancreatic islets are cultured with control medium (RPMI 1640 supplemented with 10% fetal bovine serum, antibiotics and made 8% in glucose) or in medium supplemented with I millimolar sodium palmitate (Fatty Acid Medium) during a period of 3 days. The culture medium is changed after 2 days to an identical composition culture medium with fresh inhibitor in the appropriate wells. Cells are stained with propidium iodide (PI), washed and propidium staining of cells (as a measure of cellular DNA content) is assessed by flow cytometry. The percentage of cells having less than the normal amount of PI staining is considered to be apoptotic cells (Eitel, K, et al. (2002)).

[3] = molecular target: T1, SPT; assay: Serine palmitoyltransferase activity, Assay C ([3H]serine incorporation into lipids, cell homogenates); format: biochemical; settings: 37° C. for 20 min, at the doses indicated
Procedure: An alternative assay for evaluating inhibition of SPT, the enzyme present in commonly cultured cells, is performed with CHO cells or a human cell line. Cells are washed three times with ice-cold phosphate-buffered saline (PBS). A total of 0.5 mL of lysis buffer [50 mM Hepes (pH 8.0) containing 5 mM ethylenediaminetetraacetic acid (EDTA) and 5 mM dithiothreitol (DTT)] is added to each dish. The cells are scraped using a rubber policeman, and are then transferred to a test tube on ice. The cell suspension is sonicated three times for 5 s at 1-2 min intervals on ice. Protein concentrations in cell homogenates are measured using a Bradford protein assay kit (Bio-Rad). […] The radioactivity is measured with a LS6000TA liquid scintillation counter (Beckman). Nonspecific conversion of [^3H] serine to chloroform-soluble species is determined by performing the assay in the absence of palmitoyl CoA. […]
An alternative assay using a non-chlorinated solvent modification of the Blye and Dyer lipid extraction method reported in Smedes (Smedes, F. (1999) Analyst 124, 1711-18) is employed to evaluate exemplary compounds. […] An accurately measured portion of the organic layer (4.0 ml) is added to a scintillation vial with 1 ml of water. […] The amount of [^3H] serine radioactivity incorporated into lipids is quantified in a scintillation counter. […]

[4] = test system: mice; settings: literature, cited from earlier work; for protective effect / prevention of progression of emphysema: VEGF receptor blockade model
[5] = test system: ApoE knockout mice; settings: literature; cited from earlier work
[6] = test system: diabetic Zucker fatty rat model; settings: literature; cited from earlier work

CCCCCCCCc1ccc(CCC(N)(CO)C(=O)O)cc1 (stereo not shown) [compound 2]
activity against / inhibition of SPT [1]: did not exhibit activity against SPT

CCCCCCCOc1cccc(CCC(O)C(O)C(N)C(=O)O)c1 (stereo not shown) [Compound 12]
protection of islet cells from fatty acid treatment (apoptotic cells by PI staining) ([2]; medium with sodium palmitate (Fatty Acid Medium)): fully protect cells from the fatty acid treatment | benefit in comparison to treatment with the control medium (apoptotic cells by PI staining) ([2]; versus control medium): imparts a benefit in comparison to treatment with the control medium | inhibition of SPT ([3H] serine radioactivity incorporated into lipids) [3]: moderate activity

CCCCCCCCc1ccc(CCC(N)(CO)CO)cc1 [FTY720]
activity against / inhibition of SPT [1]: do not inhibit SPT

CCCCCCC(=O)CCCCCC/C=C/C[C@@H](O)[C@H](O)[C@@](N)(CO)C(=O)O [ISP-1]
protective effect / prevention of progression of emphysema [4]: very strong protective effect | atherosclerotic plaque [5]: dramatic reduction in atherosclerotic plaque | inhibition of SPT ([3H] serine radioactivity incorporated into lipids) [3]: potent but non-selective inhibition | IC50 for inhibition of SPT [1]: sub-nanomolar

CCCC[C@@H](C)[C@@H](OC(=O)C[C@@H](CC(=O)O)C(=O)O)[C@H](C[C@@H](C)C[C@H](O)CCCC[C@@H](O)C[C@H](O)[C@H](C)N)OC(=O)C[C@@H](CC(=O)O)C(=O)O [fumonisin B1]
protective effect / prevention of progression of emphysema [4]: less effective | toxicity ([4]; emphysema model, higher doses): some toxicity at higher doses

N[C@@H]1CON=C1O [cycloserine]
beta cell protective effect [6]: ≈ 50% | activity against / inhibition of SPT [1]: weak inhibition
